Literature values in patent US6777573B1, “Method for the synthesis of ceralure B1” (The United States of America as represented by the …, priority 2002, dated 2004).
Entries after “also recorded” stand apart in the source; their conditions may differ.

Test system: Ceratitis capitata (Mediterranean fruit fly, medfly)

Structure (SMILES)	relative attractiveness among ceralure isomers (isomers separated by HPLC, study of 4 trans isomers (Warthen et al. 1994))	higher attractancy than the racemate (optically active form versus racemic ceralure B1 (Raw et al.))
CCOC(=O)C1CC(I)CCC1C (mixture of isomers) [ceralure B1, ethyl cis,trans-5-iodo-2-methylcyclohexane-1-carboxylate]	most active isomer; also recorded: superior to the other three isomers	
CCOC(=O)C1CC(I)CCC1C (single isomer, unassigned; (-)) [(−)ceralure B1, reference compound]		about 30%
